Patent publication US11944624B2, “Peptide and small molecule agonists of EphA and their uses” (CASE WESTERN RESERVE UNIVERSITY, priority 2017, dated 2024)

Columns and labels:
[1] = molecular target: T1, EphA4 (Homo sapiens, UniProt P54764); assay: EphA4 activation in HEK 293 cells overexpressing EphA4; format: cell-based; conditions: HEK 293 overexpressing EphA4, 60 minutes
T1 construct: expressed in transfected cells; host or cells: HEK 293
Procedure: Cells were plated in 24-well dishes at a density of 100,000 cells/well and grown for 24 hours prior to stimulation with appropriate compounds and ephrins for the given amounts of time. Compounds were prepared in DMSO at 500 times the final concentrations and 0.2% DMSO was used as vehicle control. Following treatment, cells were lysed directly in SDS Gel Loading Buffer and immunoblotted as described previously. […] For immunoprecipitation, 300,000 cells/well were plated in 6-well dishes and lysed in modified RIPA Buffer (20 mM Tris-HCl pH 7.4, 20 mM NaF, 150 mM NaCl, 10% glycerol, 0.1% SDS, 0.5% DCA, 2 mM EDTA, 1% Triton X-100) following treatment. Either 10 μg of ephrin-A1-Fc, or 4 mg of EphA2 mouse monoclonal antibody (Clone D7, Millipore) were used, and mouse IgG was used as a negative control for EphA2 IP. […] For this purpose, HEK 293 cell lines overexpressing EphA1, EphA2, EphA3, EphA4, and EphB3 kinases were utilized.

[2] = molecular target: T2, rat α1a adrenergic receptor (Rattus norvegicus, UniProt P43140); assay: Adrenoceptor binding, [3H]-prazosin competition; conditions: [3H]-prazosin 0.25 nM, triplicate, mean±SD; read-out: IC50, α-adrenoceptor binding
T2 construct: Eurofins Panlabs Taiwan, Ltd. (contract assay)
T2 sequence (P43140 1-466): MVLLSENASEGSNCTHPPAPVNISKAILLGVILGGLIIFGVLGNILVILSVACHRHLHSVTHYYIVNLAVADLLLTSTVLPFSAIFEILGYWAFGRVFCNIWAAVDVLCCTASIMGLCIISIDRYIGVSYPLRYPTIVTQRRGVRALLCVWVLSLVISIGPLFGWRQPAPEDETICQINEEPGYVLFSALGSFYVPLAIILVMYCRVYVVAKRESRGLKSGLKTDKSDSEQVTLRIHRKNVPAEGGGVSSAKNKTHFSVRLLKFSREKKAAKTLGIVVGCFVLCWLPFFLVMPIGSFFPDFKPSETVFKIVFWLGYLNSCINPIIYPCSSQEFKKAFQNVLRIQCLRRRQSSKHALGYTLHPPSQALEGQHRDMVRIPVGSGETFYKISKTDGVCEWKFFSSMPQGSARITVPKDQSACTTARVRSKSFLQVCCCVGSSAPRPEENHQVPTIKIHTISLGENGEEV
Procedure: Analysis of Doxazosin and analog binding to rat α1a adrenergic receptor was performed by Eurofins Panlabs Taiwan, Ltd. (Taiwan). [^3H]-prazosin at 0.25 nM was used as the radioligand. […] Non-specific binding was defined by use of 10 μM phentolamine. Incubations were terminated by vacuum filtration over 0.1% PEI pretreated glass fiber filters and filters were washed for 10 s with ice cold 0.1M NaCl and radioactivity retained on the filters was determined by liquid scintillation spectrometry. IC50 values were determined by a non-linear regression analysis using GraphPad Prism v.5 (GraphPad).

[3] = molecular target: T3, EphA2 (Homo sapiens, UniProt P29317); assay: EphA2 internalization in U373-A2 cells (immunofluorescence); format: cell-based; design: expressed in transfected cells; conditions: 60 min, DZ 50 μM, ephrin-A1-Fc 1 μg/ml
Procedure: (§1) Cells were plated in 24-well dishes at a density of 100,000 cells/well and grown for 24 hours prior to stimulation with appropriate compounds and ephrins for the given amounts of time. Compounds were prepared in DMSO at 500 times the final concentrations and 0.2% DMSO was used as vehicle control. Following treatment, cells were lysed directly in SDS Gel Loading Buffer and immunoblotted as described previously. Immunoprecipitation and immunofluorescence staining was performed as described. For immunoprecipitation, 300,000 cells/well were plated in 6-well dishes and lysed in modified RIPA Buffer (20 mM Tris-HCl pH 7.4, 20 mM NaF, 150 mM NaCl, 10% glycerol, 0.1% SDS, 0.5% DCA, 2 mM EDTA, 1% Triton X-100) following treatment. Either 10 μg of ephrin-A1-Fc, or […] of EphA2 mouse monoclonal antibody (Clone D7, Millipore) were used, and mouse IgG was used as a negative control for EphA2 IP.
(§2) Similar to other receptor tyrosine kinases, activation of the EphA2 receptor by its ligand, ephrin-A1, results in receptor internalization and eventual degradation. […] This was first performed using the U373 glioma cell line engineered to overexpress EphA2.

[4] = molecular target: endogenous EphA2 (Homo sapiens, UniProt P29317); assay: EphA2 internalization in parental MDA-MB-231 cells (immunofluorescence, Example 1); format: cell-based; design: host or cells: MDA-MB-231 (parental); conditions: 50 μM, two hours
Procedure: as §1, §2

[5] = molecular target: T3, EphA2; assay: EphA2 activation in MDA-231-A2 cells (pEphA/B immunoblot); format: cell-based; design: expressed in transfected cells; host or cells: MDA-MB-231 (MDA-231-A2 / MDA-MB-231-A2), puromycin selected; EphA2 activation in compound screen: dose or concentration left out as unconfirmed
Procedure: Cells were plated in 24-well dishes at a density of 100,000 cells/well and grown for 24 hours prior to stimulation with appropriate compounds and ephrins for the given amounts of time. Compounds were prepared in DMSO at 500 times the final concentrations and 0.2% DMSO was used as vehicle control. Following treatment, cells were lysed directly in SDS Gel Loading Buffer and immunoblotted as described previously. Immunoprecipitation and immunofluorescence staining was performed as described. For immunoprecipitation, 300,000 cells/well were plated in 6-well dishes and lysed in modified RIPA Buffer (20 mM Tris-HCl pH 7.4, 20 mM NaF, 150 mM NaCl, 10% glycerol, 0.1% SDS, 0.5% DCA, 2 mM EDTA, 1% Triton X-100) following treatment. Either 10 μg of ephrin-A1-Fc, or […] of EphA2 mouse monoclonal antibody (Clone D7, Millipore) were used, and mouse IgG was used as a negative control for EphA2 IP. To identify small molecule agonists for EphA2, we took a structure-based in silico screening approach. […] This notion was confirmed recently by determination of the crystal structure of the EphA2/ephrin-A1 complex (FIG. 1B). The size falls in the range of common drugs, making EphA2 LBD a desirable target for drug discovery. Toward this end, we initiated in silico screening to search for small molecules that interact favorably with the ligand-binding pocket of EphA2 derived from molecular modeling before the crystal structure became available. Multiple conformations for each structure were generated with OMEGA (OpenEye) and each conformation was docked individually using DOCK. Our initial screening of over 750,000 compounds identified a number of small molecules that could potentially interact with the ligand-binding pocket. The commercially available top-scoring compounds were screened for their ability to induce EphA2 activation in MDAMB-231 breast cancer cells. Because MDA-MB-231 cells express endogenous EphA2 as well as other Eph receptors, including EphA1, we overexpressed EphA2 in order to minimize the contribution from other Eph receptors in our analysis. […] Total cell lysates were probed with a previously described antibody that recognizes the activated Eph receptors. […] Originally developed as an antagonist for α1-adrenoreceptor, doxazosin (FIG. 1D) is an FDA-approved drug (CARDURA) for treating hypertension and benign prostate hyperplasia (BPH). To confirm specific EphA2 activation by doxazosin, we analyzed levels of activated Eph receptor in MDA-231-A2 cells following treatment with multiple doses of doxazosin and EphA2 immunoprecipitation.

[6] = MDA-231-A2 cells, single 50 μM dose

T3 sequence (P29317 24-976): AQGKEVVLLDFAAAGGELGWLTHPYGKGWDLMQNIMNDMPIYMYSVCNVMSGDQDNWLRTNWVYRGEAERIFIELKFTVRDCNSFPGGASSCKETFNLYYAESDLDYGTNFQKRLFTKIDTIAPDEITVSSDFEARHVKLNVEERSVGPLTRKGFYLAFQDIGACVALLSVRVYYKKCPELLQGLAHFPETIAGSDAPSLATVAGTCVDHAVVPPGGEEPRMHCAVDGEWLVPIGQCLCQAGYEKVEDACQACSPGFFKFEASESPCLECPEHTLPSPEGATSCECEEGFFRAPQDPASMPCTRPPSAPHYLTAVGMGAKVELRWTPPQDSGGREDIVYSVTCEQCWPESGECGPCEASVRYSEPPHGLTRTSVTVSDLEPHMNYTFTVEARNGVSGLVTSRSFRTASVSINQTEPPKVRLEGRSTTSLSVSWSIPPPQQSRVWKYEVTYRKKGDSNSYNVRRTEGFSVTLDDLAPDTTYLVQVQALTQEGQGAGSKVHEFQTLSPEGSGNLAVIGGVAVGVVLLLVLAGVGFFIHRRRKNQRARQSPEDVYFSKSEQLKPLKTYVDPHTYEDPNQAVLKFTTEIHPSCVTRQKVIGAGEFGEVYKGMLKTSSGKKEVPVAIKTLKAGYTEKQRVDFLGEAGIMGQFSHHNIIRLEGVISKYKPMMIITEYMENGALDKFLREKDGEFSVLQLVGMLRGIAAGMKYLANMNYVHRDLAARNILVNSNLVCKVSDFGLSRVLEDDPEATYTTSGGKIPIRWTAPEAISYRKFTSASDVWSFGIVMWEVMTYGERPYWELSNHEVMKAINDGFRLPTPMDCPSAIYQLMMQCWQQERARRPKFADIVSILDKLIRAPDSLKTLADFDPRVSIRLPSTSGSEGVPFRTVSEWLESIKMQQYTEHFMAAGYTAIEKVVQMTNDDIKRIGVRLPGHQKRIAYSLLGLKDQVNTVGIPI
T1 sequence (P54764 20-986, species assumed): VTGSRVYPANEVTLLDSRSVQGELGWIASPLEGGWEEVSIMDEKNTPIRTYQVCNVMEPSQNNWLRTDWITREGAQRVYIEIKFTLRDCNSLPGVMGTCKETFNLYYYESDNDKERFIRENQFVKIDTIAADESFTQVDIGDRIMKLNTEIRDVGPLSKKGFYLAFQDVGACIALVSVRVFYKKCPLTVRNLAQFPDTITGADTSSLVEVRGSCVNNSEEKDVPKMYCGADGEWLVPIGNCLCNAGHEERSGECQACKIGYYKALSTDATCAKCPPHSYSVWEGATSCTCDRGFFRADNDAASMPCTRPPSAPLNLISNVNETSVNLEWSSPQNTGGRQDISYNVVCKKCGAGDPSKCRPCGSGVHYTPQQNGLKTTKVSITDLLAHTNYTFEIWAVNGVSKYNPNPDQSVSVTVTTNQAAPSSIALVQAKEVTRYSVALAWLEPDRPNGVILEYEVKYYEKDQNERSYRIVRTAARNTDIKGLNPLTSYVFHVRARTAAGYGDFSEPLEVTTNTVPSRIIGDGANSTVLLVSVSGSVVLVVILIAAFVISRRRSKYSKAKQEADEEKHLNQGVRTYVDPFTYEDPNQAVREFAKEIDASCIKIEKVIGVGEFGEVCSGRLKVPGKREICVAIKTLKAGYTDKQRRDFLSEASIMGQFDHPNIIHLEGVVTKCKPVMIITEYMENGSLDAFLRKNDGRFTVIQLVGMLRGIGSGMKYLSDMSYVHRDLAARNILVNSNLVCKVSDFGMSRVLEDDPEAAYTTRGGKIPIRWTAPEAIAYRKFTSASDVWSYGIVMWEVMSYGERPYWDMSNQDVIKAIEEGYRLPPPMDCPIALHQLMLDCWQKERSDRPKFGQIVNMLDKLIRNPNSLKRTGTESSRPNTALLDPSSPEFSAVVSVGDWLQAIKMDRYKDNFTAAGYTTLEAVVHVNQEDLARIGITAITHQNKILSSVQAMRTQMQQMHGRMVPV
Chain of endogenous EphA2 (P29317 24-976): as the sequence (P29317 24-976) above

SMILES: COc1cc2nc(N3CCN(C(=O)C4COc5ccccc5O4)CC3)nc(N)c2cc1OC (stereo not drawn) [Doxazosin, 2-[4-(2,3-Dihydro-1,4-benzodioxine-2-carbonyl)piperazin-1-yl]-6,7-dimethoxyquinazolin-4-amine]
- EphA4 kinase activation [1]: activated both EphA2 and EphA4 kinases following a similar dose-response relationship
- IC50 [2]: 0.74 ± 0.3 nM
- EphA2 internalization [3]: stimulated significant EphA2 internalization
- EphA2 internalization [4]: caused significant internalization of the endogenous EphA2
- EphA2 activation after phenoxybenzamine pretreatment versus no pretreatment ([5]; MDA-231-A2 cells pretreated with 1 μM phenoxybenzamine): No difference in EphA2 activation
- EphA2 degradation ([5]; MDA-231-A2 cells, high doses): degradation of EphA2 following exposure to high doses of doxazosin
- earliest time of significant EphA2 activation [5, 6]: 5 min
- time of peak EphA2 activation [5, 6]: around 30 min
- EphA2 activation in compound screen ([5]; MDA-231-A2 cells, total cell lysates): activated EphA2 to the greatest extent
